Reference: patent publication US7018994B2, “17α-ALKYL-17β-OXY-ESTRATRIENES AND INTERMEDIATE PRODUCTS FOR THEIR PRODUCTION, USE OF THE 17α-ALKYL-17β-OXY-ESTRATRIENES FOR THE PRODUCTION OF PHARMACEUTICAL AGENTS AS WELL AS PHARMACEUTICAL PREPARATIONS” (Schering AG, priority 2001, dated 2006)

What was measured:
17β-HSD2 = target: T1, 17β-HSD2 (Homo sapiens, UniProt P37059); assay: Determination of metabolic stability: in-vitro 17β-HSD test, intestinal microsomes; type: in vitro ADME; settings: LC/MS/MS; for metabolic stability in intestinal microsomes: 37° C., 0-60 minutes, 0.3 μmol in the test batch
T1 construct: Microsome solution: intestinal microsomes (In Vitro Technologies); protein content: 24 mg/ml; tissue In Vitro Technologies; host or cells: intestinal microsomes
T1 sequence (P37059 1-387): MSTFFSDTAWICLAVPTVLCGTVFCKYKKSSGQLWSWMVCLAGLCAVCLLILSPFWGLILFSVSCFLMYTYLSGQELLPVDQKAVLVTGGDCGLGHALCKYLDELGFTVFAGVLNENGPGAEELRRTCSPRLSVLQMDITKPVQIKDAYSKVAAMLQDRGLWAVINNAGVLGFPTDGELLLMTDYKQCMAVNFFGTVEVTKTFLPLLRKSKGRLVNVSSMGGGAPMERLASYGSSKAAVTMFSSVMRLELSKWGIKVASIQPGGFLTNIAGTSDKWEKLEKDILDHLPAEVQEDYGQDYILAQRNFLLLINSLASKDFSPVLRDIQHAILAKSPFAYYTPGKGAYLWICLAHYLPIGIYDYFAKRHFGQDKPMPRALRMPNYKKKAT
Excerpt: Determination of metabolic stability: in-vitro 17β-HSD test
17β-HSD2 mediates the intestinal enzymatic dehydrogenization of an OH group in 17-position of the sterane skeleton into a ketone group.
For this test, the following materials are used:
Na-Phosphate buffer: 100 mmol of Na2HPO4×2H2O and 100 mmol of NaH2PO4×H2O
Test substance solution of
11β-Fluoro-7α-{5-[methyl(8,8,9,9,9-pentafluorononyl)amino]pentyl}-17α-methylestra-1,3,5(10)-triene-3,17β-diol (compound 1, as a representative of the compounds of general formula I) and
11β-Fluoro-7α-{5-[methyl(8,8,9,9,9-pentafluorononyl)amino]pentyl-estra-1,3,5(10)-triene-3,17β-diol (compound 2): […] in MeOH (0.3 μmol in the test batch).
Cofactor solution: 2 ml of glucose-6-phosphate (160 mmol)/MgCl2 (80 mmol) mixture is added to 400 μl of a glucose-6-phosphate-dehydrogenase solution, and then 15.6 mg of NADP and 13.4 mg of NAD are added.
Microsome solution: intestinal microsomes (In Vitro Technologies; protein content: 24 mg/ml; CYP450 content: 0.058 nmol/mg of protein)
In the water bath, it is thawed at 37° C. (˜60 seconds) and diluted with Na-phosphate buffer to a concentration of 5 mg/ml of protein.
In each case, 170 μl/well of the buffer and 5 μl/well of the test substance solutions are introduced into the corresponding wells, whereby double values are applied for each measuring time (0, 10, 20, 30, 45 and 60 minutes).
In each case, 250 μl of ice-cold MeOH is added to the 0-minute values. Then, 25 μl of microsome solution and 50 μl of cofactor solution are added immediately to all wells. The samples of the 0-minute values are stored without incubation at ˜−20° C. for about 24 hours. The other samples are incubated in each case for 10, 20, 30, 45 and 60 minutes at 37° C., and the dehydrogenation reaction is stopped after these times by the addition of 250 μl of ice-cold MeOH in each case. The samples are stored until measurement per LC/MS/MS at ˜−20° C., for about 24 hours and centrifuged at 3000 rpm before analysis, whereby the supernatant is measured.
(§1) The concentrations of the test substances measured per LC/MS/MS and the resulting 17 ketone product are reproduced in FIGS. 2a-2f.

uterus growth = assay: Uterus growth test on infant rats (test on antiestrogenic action, antiuterotropic action); type: in vivo, rat; settings: infant female rats, inhibition relative to EB control; for Antiuterotropic Action % Inhib. p.o.: 0.3 (mg/kg of body weight) p.o. once daily for three days with 0.5 μg estradiolbenzoate s.c.
[1] = Metabolic stability in liver microsomes; type: in vitro ADME; settings: LC/MS/MS
Excerpt: as §1

metabolic stability in intestinal microsomes (17β-HSD2)	formation of the 17-ketone product of the 17βHSD-reaction (17β-HSD2)	Compound	Antiuterotropic Action % Inhib. p.o. (uterus growth)	other results
degraded	the corresponding 17-ketone is produced	CN(CCCCCCCC(F)(F)C(F)(F)F)CCCCC[C@@H]1Cc2cc(O)ccc2[C@@H]2[C@@H]1[C@@H]1CC[C@H](O)[C@@]1(C)C[C@@H]2F [compound 2, reference compound]		
		11β-Fluoro-7α-{5-[methyl(7,7,8,8,9,9,10,10,10-nonafluorodecyl)amino]pentyl}-17α-methylestra-1,3,5 (10)-triene-3,17β-diol [No. 7]		Antiuterotropic Action % Inhib. s.c. (uterus growth; 0.03 (mg/kg of body weight) s.c., once daily for three days with 0.5 μg estradiolbenzoate s.c.): 59%
		11β-Fluoro-7α-{5-[methyl(7,7,8,8,9,9,9-heptafluorononyl)amino]pentyl}-17α-methylestra-1,3,5(10)-triene-3,17β-diol [No. 8]	94%	
metabolically stable	does not occur in any of the tissues	11β-Fluoro-7α-{5-[methyl(8,8,9,9,9-pentafluorononyl)amino]pentyl}-17α-methylestra-1,3,5(10)-triene-3,17β-diol [compound 1]		formation of the 17-ketone product of the 17βHSD-reaction [1]: does not occur in any of the tissues; metabolic stability in liver microsomes [1]: not in liver microsomes
		CN(CCCCCCCC(F)(F)C(F)(F)F)CCCCC[C@@H]1Cc2cc(O)ccc2[C@@H]2[C@@H]1[C@@H]1CCC(=O)[C@@]1(C)C[C@@H]2F [compound 3, 11β-fluoro-7α-{5-[methyl(8,8,9,9,9-pentafluorononyl)amino]pentyl}-estra-1,3,5(10)-trien-3-ol-17-one]	76%	
